Data as given in PubChem BioAssay (NCI).
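Five compound concentrations were applied to cells in 96-well plates for 48 hours; endpoints were derived by simple linear interpolation of the resulting dose-response curve. The concentration for full growth arrest is given as TGI.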

Columns and labels:
Test in all cases: growth of human tumour cells (NCI), 48 h
OVCAR-3 ovarian = system: OVCAR-3 ovarian
HCC-2998 colon = system: HCC-2998 colon
UO-31 renal = system: UO-31 renal
SN12C renal = system: SN12C renal
DU-145 prostate = system: DU-145 prostate
K-562 leukemia = system: K-562 leukemia
IGROV1 ovarian = system: IGROV1 ovarian
MCF7 breast = system: MCF7 breast
RXF 393 renal = system: RXF 393 renal
HOP-92 NSCLC = system: HOP-92 NSCLC
T-47D breast = system: T-47D breast
SNB-19 CNS = system: SNB-19 CNS
NCI-H522 lung = system: NCI-H522 lung
MALME-3M melanoma = system: MALME-3M melanoma
TK-10 renal = system: TK-10 renal
HCT-15 colon = system: HCT-15 colon
SK-OV-3 ovarian = system: SK-OV-3 ovarian
SK-MEL-2 melanoma = system: SK-MEL-2 melanoma
ACHN renal = system: ACHN renal
NCI-H23 lung = system: NCI-H23 lung
CCRF-CEM leukemia = system: CCRF-CEM leukemia
HL-60(TB) leukemia = system: HL-60(TB) leukemia
NCI/ADR-RES ovarian = system: NCI/ADR-RES ovarian
COLO 205 colon = system: COLO 205 colon
SW-620 colon = system: SW-620 colon
MOLT-4 leukemia = system: MOLT-4 leukemia
OVCAR-8 ovarian = system: OVCAR-8 ovarian
UACC-257 melanoma = system: UACC-257 melanoma
SF-295 CNS = system: SF-295 CNS
786-0 renal = system: 786-0 renal
M14 melanoma = system: M14 melanoma
U251 CNS = system: U251 CNS
PC-3 prostate = system: PC-3 prostate
SF-268 CNS = system: SF-268 CNS
MDA-N = system: MDA-N
HT29 colon = system: HT29 colon
OVCAR-5 ovarian = system: OVCAR-5 ovarian
SK-MEL-28 melanoma = system: SK-MEL-28 melanoma
EKVX NSCLC = system: EKVX NSCLC
A498 renal = system: A498 renal
HCT-116 colon = system: HCT-116 colon
KM12 colon = system: KM12 colon
LOX IMVI melanoma = system: LOX IMVI melanoma
NCI-H226 lung = system: NCI-H226 lung
OVCAR-4 ovarian = system: OVCAR-4 ovarian
NCI-H460 lung = system: NCI-H460 lung
MDA-MB-231 breast = system: MDA-MB-231 breast
SNB-75 CNS = system: SNB-75 CNS
CAKI-1 renal = system: CAKI-1 renal
UACC-62 melanoma = system: UACC-62 melanoma
A549 NSCLC = system: A549 NSCLC
SF-539 CNS = system: SF-539 CNS
MDA-MB-435 = system: MDA-MB-435
HOP-62 NSCLC = system: HOP-62 NSCLC
SR leukemia = system: SR leukemia
SK-MEL-5 melanoma = system: SK-MEL-5 melanoma
RPMI-8226 leukemia = system: RPMI-8226 leukemia
HS 578T breast = system: HS 578T breast

COC(=O)CNC(=O)CSc1nnc(COc2ccc(Cl)cc2)n1-c1ccccc1
TGI (OVCAR-3 ovarian): > 100 µM
TGI (HCC-2998 colon): 59.1 µM
TGI (UO-31 renal): 77.3 µM
TGI (SN12C renal): 38.5 µM
TGI (DU-145 prostate): 33.6 µM
TGI (K-562 leukemia): > 100 µM
TGI (IGROV1 ovarian): 54 µM
TGI (MCF7 breast): > 100 µM
TGI (RXF 393 renal): 51.1 µM
TGI (HOP-92 NSCLC): > 100 µM
TGI (T-47D breast): > 100 µM
TGI (SNB-19 CNS): > 100 µM
TGI (NCI-H522 lung): 34.7 µM
TGI (MALME-3M melanoma): > 100 µM
TGI (TK-10 renal): 46.3 µM
TGI (HCT-15 colon): > 100 µM
TGI (SK-OV-3 ovarian): > 100 µM
TGI (SK-MEL-2 melanoma): 50.7 µM
TGI (ACHN renal): 55 µM
TGI (NCI-H23 lung): > 100 µM
TGI (CCRF-CEM leukemia): > 100 µM
TGI (HL-60(TB) leukemia): > 100 µM
TGI (NCI/ADR-RES ovarian): > 100 µM
TGI (COLO 205 colon): > 100 µM
TGI (SW-620 colon): > 100 µM
TGI (MOLT-4 leukemia): > 100 µM
TGI (OVCAR-8 ovarian): 92.9 µM
TGI (UACC-257 melanoma): 75.8 µM
TGI (SF-295 CNS): > 100 µM
TGI (786-0 renal): 31.4 µM
TGI (M14 melanoma): > 100 µM
TGI (U251 CNS): > 100 µM
TGI (PC-3 prostate): 51.2 µM
TGI (SF-268 CNS): 46.6 µM
TGI (MDA-N): 42.2 µM
TGI (HT29 colon): > 100 µM
TGI (OVCAR-5 ovarian): > 100 µM
TGI (SK-MEL-28 melanoma): 81.3 µM
TGI (EKVX NSCLC): > 100 µM
TGI (A498 renal): > 100 µM
TGI (HCT-116 colon): > 100 µM
TGI (KM12 colon): > 100 µM
TGI (LOX IMVI melanoma): > 100 µM
TGI (NCI-H226 lung): > 100 µM
TGI (OVCAR-4 ovarian): > 100 µM
TGI (NCI-H460 lung): > 100 µM
TGI (MDA-MB-231 breast): 49.1 µM
TGI (SNB-75 CNS): 35.5 µM
TGI (CAKI-1 renal): 32.2 µM
TGI (UACC-62 melanoma): > 100 µM
TGI (A549 NSCLC): > 100 µM
TGI (SF-539 CNS): > 100 µM
TGI (MDA-MB-435): 48.4 µM
TGI (HOP-62 NSCLC): > 100 µM

CC[C@]1(Cc2ccc(OC)c(OC)c2)C=[N+]([O-])O[C@H](OCc2ccccc2)[C@@H]1OC(C)=O
TGI (OVCAR-3 ovarian): 42.5 µM
TGI (HCC-2998 colon): > 100 µM
TGI (UO-31 renal): > 100 µM
TGI (DU-145 prostate): 93.5 µM
TGI (K-562 leukemia): 56.8 µM
TGI (IGROV1 ovarian): > 100 µM
TGI (MCF7 breast): > 100 µM
TGI (RXF 393 renal): 55.4 µM
TGI (HOP-92 NSCLC): 77.3 µM
TGI (T-47D breast): > 100 µM
TGI (SR leukemia): 48.2 µM
TGI (SK-MEL-5 melanoma): > 100 µM
TGI (SNB-19 CNS): > 100 µM
TGI (NCI-H522 lung): 28.5 µM
TGI (MALME-3M melanoma): 52.9 µM
TGI (TK-10 renal): > 100 µM
TGI (RPMI-8226 leukemia): 57.9 µM
TGI (HCT-15 colon): > 100 µM
TGI (SK-OV-3 ovarian): > 100 µM
TGI (SK-MEL-2 melanoma): 79.3 µM
TGI (ACHN renal): > 100 µM
TGI (NCI-H23 lung): > 100 µM
TGI (CCRF-CEM leukemia): 55.6 µM
TGI (HL-60(TB) leukemia): 36.3 µM
TGI (NCI/ADR-RES ovarian): > 100 µM
TGI (COLO 205 colon): 34.5 µM
TGI (SW-620 colon): > 100 µM
TGI (MOLT-4 leukemia): 27.3 µM
TGI (OVCAR-8 ovarian): > 100 µM
TGI (UACC-257 melanoma): > 100 µM
TGI (SF-295 CNS): > 100 µM
TGI (786-0 renal): > 100 µM
TGI (M14 melanoma): > 100 µM
TGI (U251 CNS): > 100 µM
TGI (PC-3 prostate): 64.3 µM
TGI (SF-268 CNS): 70.9 µM
TGI (MDA-N): > 100 µM
TGI (HT29 colon): 79.9 µM
TGI (OVCAR-5 ovarian): > 100 µM
TGI (SK-MEL-28 melanoma): 84.6 µM
TGI (EKVX NSCLC): 67.5 µM
TGI (A498 renal): > 100 µM
TGI (KM12 colon): 58.8 µM
TGI (LOX IMVI melanoma): 39.5 µM
TGI (NCI-H226 lung): 53.8 µM
TGI (OVCAR-4 ovarian): 95.6 µM
TGI (NCI-H460 lung): > 100 µM
TGI (MDA-MB-231 breast): > 100 µM
TGI (HS 578T breast): 60.5 µM
TGI (SNB-75 CNS): > 100 µM
TGI (CAKI-1 renal): 80.9 µM
TGI (UACC-62 melanoma): > 100 µM
TGI (A549 NSCLC): > 100 µM
TGI (MDA-MB-435): > 100 µM
TGI (HOP-62 NSCLC): > 100 µM
